Patent publication US20250171457A1, “NITROGEN-CONTAINING HETEROCYCLIC COMPOUND HAVING NRF2 ACTIVATION EFFECT” (CHUGAI SEIYAKU KABUSHIKI KAISHA, priority 2022, published 2025)

test system: Nrf2 transcriptional activity (pARE-Luc reporter) in HepG2 cells; assay: In vitro Nrf2 transcriptional activity measurement by ARE-dependent reporter assay in HepG2 cell; assay type: cell-based, human; settings: Homo sapiens; HepG2 cells transfected with pARE-Luc, 4 hours at 37° C.; luciferase activity of Example 1-54 or Example 17-23 at 3.75 μM defined as 100%
How it was run: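 Luminescence readout (Bright-Glo) after 4 h, 37° C compound exposure of HepG2 cells carrying the ARE-luciferase vector pGL4.37. Each well converted to % response versus reference compound at 3.75 μM, and EC50 derived from dose-response curves.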

Q: Which EC50 does the source give for `COc1ncc(-c2cc(Cl)c(C(=O)N3COc4c(cccc4-c4cc(N5C6CCC5COC6)c(C(=O)O)cc4F)C3)c(Cl)c2)c2nn(C)nc12` [Compound 3-26, 4-[3-[2,6-Dichloro-4-(4-methoxy-2-methyltriazolo[4,5-c]pyridin-7-yl)benzoyl]-2,4-dihydro-1,3-benzoxazin-8-yl]-5-fluoro-2-(3-oxa-8-azabicyclo[3.2.1]octan-8-yl)benzoic acid] here?
A: 9.8 nM

Q: For `COc1ncc(-c2cc(Cl)c(C(=O)N3COc4c(cccc4-c4cc(N5C6CCC5COC6)c(C(=O)O)cc4F)C3)c(Cl)c2)c2nnn(C)c12` [Compound 3-27, 4-[3-[2,6-Dichloro-4-(4-methoxy-3-methyltriazolo[4,5-c]pyridin-7-yl)benzoyl]-2,4-dihydro-1,3-benzoxazin-8-yl]-5-fluoro-2-(3-oxa-8-azabicyclo[3.2.1]octan-8-yl)benzoic acid], which EC50 is on record?
A: 8.8 nM

Q: With `COCCn1cc(-c2cc(Cl)c(C(=O)N3COc4c(cccc4-c4ccc(C(=O)O)c(N5CCOCC5)c4)C3)c(Cl)c2)cn1` [Compound 3-28, 4-[3-[2,6-Dichloro-4-[1-(2-methoxyethyl)pyrazol-4-yl]benzoyl]-2,4-dihydro-1,3-benzoxazin-8-yl]-2-morpholin-4-ylbenzoic acid] as the compound, how does the EC50 read?
A: 2.1 nM

Q: `COC1CN(c2cc(Cl)c(C(=O)N3COc4c(cccc4-c4cc(N5C6CCC5COC6)c(C(=O)O)cc4F)C3)c(Cl)c2)C1` [Compound 4-1, 4-[3-[2,6-Dichloro-4-(3-methoxyazetidin-1-yl)benzoyl]-2,4-dihydro-1,3-benzoxazin-8-yl]-5-fluoro-2-(3-oxa-8-azabicyclo[3.2.1]octan-8-yl)benzoic acid] was tested. Which EC50 did it give?
A: 3.1 nM

Q: For `CCOC1(C)CN(c2cc(Cl)c(C(=O)N3COc4c(cccc4-c4cc(N5C6CCC5COC6)c(C(=O)O)cc4F)C3)c(Cl)c2)C1` [Compound 4-2, 4-[3-[2,6-Dichloro-4-(3-ethoxy-3-methylazetidin-1-yl)benzoyl]-2,4-dihydro-1,3-benzoxazin-8-yl]-5-fluoro-2-(3-oxa-8-azabicyclo[3.2.1]octan-8-yl)benzoic acid], which EC50 is on record?
A: 1.2 nM

Q: How did the EC50 turn out when `CCC1(OC)CN(c2cc(Cl)c(C(=O)N3COc4c(cccc4-c4cc(N5C6CCC5COC6)c(C(=O)O)cc4F)C3)c(Cl)c2)C1` [Compound 4-3, 4-[3-[2,6-Dichloro-4-(3-ethyl-3-methoxyazetidin-1-yl)benzoyl]-2,4-dihydro-1,3-benzoxazin-8-yl]-5-fluoro-2-(3-oxa-8-azabicyclo[3.2.1]octan-8-yl)benzoic acid] was run?
A: 1.7 nM

Q: With `COCC1CN(c2cc(Cl)c(C(=O)N3COc4c(cccc4-c4cc(N5C6CCC5COC6)c(C(=O)O)cc4F)C3)c(Cl)c2)C1` [Compound 4-4, 4-[3-[2,6-Dichloro-4-[3-(methoxymethyl)azetidin-1-yl]benzoyl]-2,4-dihydro-1,3-benzoxazin-8-yl]-5-fluoro-2-(3-oxa-8-azabicyclo[3.2.1]octan-8-yl)benzoic acid] as the compound, how does the EC50 read?
A: 3.2 nM

Q: `COC1(C)CN(c2cc(Cl)c(C(=O)N3COc4c(cccc4-c4cc(N5C6CCC5COC6)c(C(=O)O)cc4F)C3)c(Cl)c2)C1` [Compound 4-5, 4-[3-[2,6-Dichloro-4-(3-methoxy-3-methylazetidin-1-yl)benzoyl]-2,4-dihydro-1,3-benzoxazin-8-yl]-5-fluoro-2-(3-oxa-8-azabicyclo[3.2.1]octan-8-yl)benzoic acid] was tested. Which EC50 did it give?
A: 1.3 nM

Q: Which EC50 does the source give for `O=C(O)c1cc(F)c(-c2cccc3c2OCN(C(=O)c2c(Cl)cc(N4CC5(COC5)C4)cc2Cl)C3)cc1N1C2CCC1COC2` [Compound 4-6, 4-[3-[2,6-Dichloro-4-(2-oxa-6-azaspiro[3.3]heptan-6-yl)benzoyl]-2,4-dihydro-1,3-benzoxazin-8-yl]-5-fluoro-2-(3-oxa-8-azabicyclo[3.2.1]octan-8-yl)benzoic acid] here?
A: 8 nM

Q: For `O=C(O)c1cc(F)c(-c2cccc3c2OCN(C(=O)c2c(Cl)cc(N4CC5(CCC5)C4)cc2Cl)C3)cc1N1C2CCC1COC2` [Compound 4-7, 4-[3-[4-(2-Azaspiro[3.3]heptan-2-yl)-2,6-dichlorobenzoyl]-2,4-dihydro-1,3-benzoxazin-8-yl]-5-fluoro-2-(3-oxa-8-azabicyclo[3.2.1]octan-8-yl)benzoic acid], which EC50 is on record?
A: 3.3 nM

Q: How did the EC50 turn out when `O=C(O)c1cc(F)c(-c2cccc3c2OCN(C(=O)c2c(Cl)cc(N4CCN5CCC[C@@H]5C4)cc2Cl)C3)cc1N1C2CCC1COC2` [Compound 4-9, 4-[3-[4-[(8aR)-3,4,6,7,8,8a-Hexahydro-1H-pyrrolo[1,2-a]pyrazin-2-yl]-2,6-dichlorobenzoyl]-2,4-dihydro-1,3-benzoxazin-8-yl]-5-fluoro-2-(3-oxa-8-azabicyclo[3.2.1]octan-8-yl)benzoic acid] was run?
A: 2.2 nM

Q: With `O=C(O)c1cc(F)c(-c2cccc3c2OCN(C(=O)c2c(Cl)cc(N4CCN(C5CCOC5)CC4)cc2Cl)C3)cc1N1C2CCC1COC2` (centres unmarked) [Compound 4-10, 4-[3-[2,6-Dichloro-4-[4-(oxolan-3-yl)piperazin-1-yl]benzoyl]-2,4-dihydro-1,3-benzoxazin-8-yl]-5-fluoro-2-(3-oxa-8-azabicyclo[3.2.1]octan-8-yl)benzoic acid] as the compound, how does the EC50 read?
A: 4.2 nM

Q: How did the EC50 turn out when `O=C(O)c1cc(F)c(-c2cccc3c2OCN(C(=O)c2c(Cl)cc(N4CCNC5(CC5)C4)cc2Cl)C3)cc1N1C2CCC1COC2` [Compound 4-11, 4-[3-[2,6-Dichloro-4-(4,7-diazaspiro[2.5]octan-7-yl)benzoyl]-2,4-dihydro-1,3-benzoxazin-8-yl]-5-fluoro-2-(3-oxa-8-azabicyclo[3.2.1]octan-8-yl)benzoic acid] was run?
A: 25 nM

Q: How did the EC50 turn out when `O=C(O)c1cc(F)c(-c2cccc3c2OCN(C(=O)c2c(Cl)cc(N4CCN(C5CC5)CC4)cc2Cl)C3)cc1N1C2CCC1COC2` [Compound 4-12, 4-[3-[2,6-Dichloro-4-(4-cyclopropylpiperazin-1-yl)benzoyl]-2,4-dihydro-1,3-benzoxazin-8-yl]-5-fluoro-2-(3-oxa-8-azabicyclo[3.2.1]octan-8-yl)benzoic acid] was run?
A: 2.1 nM

Q: For `O=C(O)c1cc(F)c(-c2cccc3c2OCN(C(=O)c2c(Cl)cc(N4CCN5CCOC[C@@H]5C4)cc2Cl)C3)cc1N1C2CCC1COC2` [Compound 4-13, 4-[3-[4-[(9aS)-3,4,6,7,9,9a-Hexahydro-1H-pyrazino[2,1-c][1,4]oxazin-8-yl]-2,6-dichlorobenzoyl]-2,4-dihydro-1,3-benzoxazin-8-yl]-5-fluoro-2-(3-oxa-8-azabicyclo[3.2.1]octan-8-yl)benzoic acid], which EC50 is on record?
A: 5.8 nM

Q: For `O=C(O)c1cc(F)c(-c2cccc3c2OCN(C(=O)c2c(Cl)cc(N4CCN5CCOC[C@H]5C4)cc2Cl)C3)cc1N1C2CCC1COC2` [Compound 4-14, 4-[3-[4-[(9aR)-3,4,6,7,9,9a-Hexahydro-1H-pyrazino[2,1-c][1,4]oxazin-8-yl]-2,6-dichlorobenzoyl]-2,4-dihydro-1,3-benzoxazin-8-yl]-5-fluoro-2-(3-oxa-8-azabicyclo[3.2.1]octan-8-yl)benzoic acid], which EC50 is on record?
A: 9 nM

Q: Which EC50 does the source give for `CC(C)(O)CN1CCN(c2cc(Cl)c(C(=O)N3COc4c(cccc4-c4cc(N5C6CCC5COC6)c(C(=O)O)cc4F)C3)c(Cl)c2)CC1` [Compound 4-15, 4-[3-[2,6-Dichloro-4-[4-(2-hydroxy-2-methylpropyl)piperazin-1-yl]benzoyl]-2,4-dihydro-1,3-benzoxazin-8-yl]-5-fluoro-2-(3-oxa-8-azabicyclo[3.2.1]octan-8-yl)benzoic acid] here?
A: 3.1 nM
